# In paper PMC8355706, “CK-3, A Novel Methsulfonyl Pyridine Derivative, Suppresses Hepatocellular Carcinoma Proliferation and Invasion by Blocking the PI3K/AKT/mTOR and MAPK/ERK Pathways” (Frontiers in Oncology, 2021):
# Experiments:
# Assay type in all cases: biochemical
# [1] = target: T1, ERK; assay: kinase activity profile; ERK assay not described
# T1 construct: gene MAPK1; enzyme source and assay not described; ERK2 used only for docking
# From the text: kinase activity profile; ERK assay not described on ERK
# [2] = target: T2, PI3Kγ (Homo sapiens, UniProt P48736); assay: PI3K-Glo ADP detection kinase assay
# T2 construct: gene PIK3CG
# T2 sequence (P48736 whole entry): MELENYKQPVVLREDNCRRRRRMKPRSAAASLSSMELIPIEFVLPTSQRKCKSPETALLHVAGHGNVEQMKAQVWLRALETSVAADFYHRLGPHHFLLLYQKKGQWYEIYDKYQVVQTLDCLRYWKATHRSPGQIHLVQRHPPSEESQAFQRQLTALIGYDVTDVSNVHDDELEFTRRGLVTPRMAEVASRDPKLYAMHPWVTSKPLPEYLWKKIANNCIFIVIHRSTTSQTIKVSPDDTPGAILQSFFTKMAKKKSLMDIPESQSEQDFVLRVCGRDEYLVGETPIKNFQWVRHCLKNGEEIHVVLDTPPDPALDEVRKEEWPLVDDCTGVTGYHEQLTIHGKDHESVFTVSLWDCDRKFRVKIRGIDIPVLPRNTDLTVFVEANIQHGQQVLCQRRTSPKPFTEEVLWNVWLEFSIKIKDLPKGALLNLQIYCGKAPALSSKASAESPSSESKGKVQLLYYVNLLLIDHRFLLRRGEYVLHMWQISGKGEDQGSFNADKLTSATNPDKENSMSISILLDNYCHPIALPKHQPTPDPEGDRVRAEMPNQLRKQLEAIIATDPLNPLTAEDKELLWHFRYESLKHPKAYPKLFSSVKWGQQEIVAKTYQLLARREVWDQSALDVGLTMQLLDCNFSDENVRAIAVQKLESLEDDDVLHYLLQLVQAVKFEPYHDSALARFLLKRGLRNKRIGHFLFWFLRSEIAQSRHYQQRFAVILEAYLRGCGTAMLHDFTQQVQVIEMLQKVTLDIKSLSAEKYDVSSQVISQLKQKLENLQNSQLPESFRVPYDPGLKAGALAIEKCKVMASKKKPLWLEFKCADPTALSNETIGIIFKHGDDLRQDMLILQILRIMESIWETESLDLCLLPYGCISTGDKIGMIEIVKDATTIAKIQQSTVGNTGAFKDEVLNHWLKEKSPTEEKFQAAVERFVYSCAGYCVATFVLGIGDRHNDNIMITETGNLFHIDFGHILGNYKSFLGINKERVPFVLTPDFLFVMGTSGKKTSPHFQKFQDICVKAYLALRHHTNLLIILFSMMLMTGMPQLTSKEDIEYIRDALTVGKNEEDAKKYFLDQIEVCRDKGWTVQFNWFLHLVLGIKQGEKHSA
# From the text: PI3K-Glo ADP detection kinase assay on PI3Kγ
# [3] = target: T3, PI3Kδ (Homo sapiens, UniProt O00329); assay: PI3K-Glo ADP detection kinase assay
# T3 construct: gene PIK3CD; with Phosphatidylinositol 3-kinase regulatory subunit alpha
# T3 sequence (O00329 whole entry): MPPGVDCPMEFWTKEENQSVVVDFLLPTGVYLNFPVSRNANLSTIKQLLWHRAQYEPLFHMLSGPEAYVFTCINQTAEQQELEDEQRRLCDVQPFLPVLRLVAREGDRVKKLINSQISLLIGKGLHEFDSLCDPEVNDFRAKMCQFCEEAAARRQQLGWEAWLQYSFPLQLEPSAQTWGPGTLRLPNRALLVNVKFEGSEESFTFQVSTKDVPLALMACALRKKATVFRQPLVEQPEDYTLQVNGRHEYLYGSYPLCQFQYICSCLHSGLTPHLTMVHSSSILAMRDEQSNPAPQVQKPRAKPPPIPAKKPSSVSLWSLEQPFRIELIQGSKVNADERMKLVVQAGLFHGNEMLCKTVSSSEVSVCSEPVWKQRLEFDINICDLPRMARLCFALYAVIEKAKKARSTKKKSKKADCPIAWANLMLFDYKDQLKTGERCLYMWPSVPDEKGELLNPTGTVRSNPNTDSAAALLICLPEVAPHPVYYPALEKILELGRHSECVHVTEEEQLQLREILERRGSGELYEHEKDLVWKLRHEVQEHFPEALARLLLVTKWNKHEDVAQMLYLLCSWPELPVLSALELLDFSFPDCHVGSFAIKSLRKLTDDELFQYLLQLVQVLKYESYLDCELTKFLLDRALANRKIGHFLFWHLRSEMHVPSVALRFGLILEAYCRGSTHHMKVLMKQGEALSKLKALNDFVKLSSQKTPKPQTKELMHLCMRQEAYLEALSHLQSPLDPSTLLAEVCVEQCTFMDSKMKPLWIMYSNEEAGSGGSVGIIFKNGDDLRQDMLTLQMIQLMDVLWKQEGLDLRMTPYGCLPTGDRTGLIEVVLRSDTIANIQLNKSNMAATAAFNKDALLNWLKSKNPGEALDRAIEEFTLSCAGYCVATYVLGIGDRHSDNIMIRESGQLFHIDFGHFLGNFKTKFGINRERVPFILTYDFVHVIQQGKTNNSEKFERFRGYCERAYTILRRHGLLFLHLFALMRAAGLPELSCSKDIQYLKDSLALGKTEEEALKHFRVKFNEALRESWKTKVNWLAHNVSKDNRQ
# T3 sequence (P27986 2-724 partner): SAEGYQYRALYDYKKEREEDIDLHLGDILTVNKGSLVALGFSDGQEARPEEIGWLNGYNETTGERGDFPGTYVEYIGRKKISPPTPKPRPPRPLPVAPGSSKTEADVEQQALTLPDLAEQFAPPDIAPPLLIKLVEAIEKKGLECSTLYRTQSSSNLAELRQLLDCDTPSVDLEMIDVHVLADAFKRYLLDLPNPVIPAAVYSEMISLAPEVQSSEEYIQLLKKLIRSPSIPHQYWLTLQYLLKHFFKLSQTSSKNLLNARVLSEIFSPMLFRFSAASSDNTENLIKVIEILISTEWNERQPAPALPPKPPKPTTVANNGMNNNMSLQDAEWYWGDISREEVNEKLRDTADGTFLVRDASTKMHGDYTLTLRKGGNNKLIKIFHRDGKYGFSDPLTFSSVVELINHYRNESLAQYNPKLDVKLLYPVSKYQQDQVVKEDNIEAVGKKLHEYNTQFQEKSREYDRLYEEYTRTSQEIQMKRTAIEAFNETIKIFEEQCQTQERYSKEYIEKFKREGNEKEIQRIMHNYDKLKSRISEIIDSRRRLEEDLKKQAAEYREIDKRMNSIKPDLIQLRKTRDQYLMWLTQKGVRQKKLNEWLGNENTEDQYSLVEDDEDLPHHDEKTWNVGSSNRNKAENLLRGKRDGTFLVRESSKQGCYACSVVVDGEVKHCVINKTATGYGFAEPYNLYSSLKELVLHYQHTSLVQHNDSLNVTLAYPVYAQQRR
# From the text: PI3K-Glo ADP detection kinase assay on PI3Kδ
# [4] = target: T4, PI3Kα (Homo sapiens, UniProt P42336); assay: PI3K-Glo ADP detection kinase assay
# T4 construct: gene PIK3CA; with Phosphatidylinositol 3-kinase regulatory subunit alpha
# T4 sequence (P42336 whole entry): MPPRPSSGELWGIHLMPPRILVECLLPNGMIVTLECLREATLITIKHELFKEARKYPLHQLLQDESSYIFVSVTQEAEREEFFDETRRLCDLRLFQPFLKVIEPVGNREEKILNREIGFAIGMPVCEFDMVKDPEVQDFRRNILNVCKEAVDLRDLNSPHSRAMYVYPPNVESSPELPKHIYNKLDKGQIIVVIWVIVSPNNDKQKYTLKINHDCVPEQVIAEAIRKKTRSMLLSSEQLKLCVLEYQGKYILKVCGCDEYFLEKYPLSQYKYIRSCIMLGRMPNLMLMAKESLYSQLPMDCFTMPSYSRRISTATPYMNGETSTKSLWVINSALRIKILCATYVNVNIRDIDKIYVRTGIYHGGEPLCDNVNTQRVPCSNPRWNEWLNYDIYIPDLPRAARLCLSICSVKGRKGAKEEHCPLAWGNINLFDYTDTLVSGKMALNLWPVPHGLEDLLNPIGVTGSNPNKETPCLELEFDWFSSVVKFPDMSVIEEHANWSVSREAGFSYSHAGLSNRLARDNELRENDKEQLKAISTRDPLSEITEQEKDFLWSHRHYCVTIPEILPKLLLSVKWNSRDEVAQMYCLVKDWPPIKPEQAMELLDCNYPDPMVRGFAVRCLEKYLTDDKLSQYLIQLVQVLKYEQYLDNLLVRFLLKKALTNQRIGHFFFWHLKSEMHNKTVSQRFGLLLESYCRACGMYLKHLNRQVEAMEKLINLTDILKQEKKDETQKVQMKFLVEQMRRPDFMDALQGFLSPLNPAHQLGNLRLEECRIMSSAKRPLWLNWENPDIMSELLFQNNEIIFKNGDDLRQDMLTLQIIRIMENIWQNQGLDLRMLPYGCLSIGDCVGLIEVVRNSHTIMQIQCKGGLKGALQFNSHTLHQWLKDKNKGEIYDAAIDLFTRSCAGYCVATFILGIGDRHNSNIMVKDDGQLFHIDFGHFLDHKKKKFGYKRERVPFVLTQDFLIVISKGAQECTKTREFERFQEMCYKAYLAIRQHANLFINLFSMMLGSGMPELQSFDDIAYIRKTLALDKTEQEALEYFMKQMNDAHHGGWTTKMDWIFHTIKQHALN
# T4 sequence (P27986 2-724 partner): as the sequence (P27986 2-724 partner) above
# From the text: PI3K-Glo ADP detection kinase assay on PI3Kα
# [5] = target: T5, PI3Kβ (Homo sapiens, UniProt P42338); assay: PI3K-Glo ADP detection kinase assay
# T5 construct: gene PIK3CB; with Phosphatidylinositol 3-kinase regulatory subunit alpha
# T5 sequence (P42338 whole entry): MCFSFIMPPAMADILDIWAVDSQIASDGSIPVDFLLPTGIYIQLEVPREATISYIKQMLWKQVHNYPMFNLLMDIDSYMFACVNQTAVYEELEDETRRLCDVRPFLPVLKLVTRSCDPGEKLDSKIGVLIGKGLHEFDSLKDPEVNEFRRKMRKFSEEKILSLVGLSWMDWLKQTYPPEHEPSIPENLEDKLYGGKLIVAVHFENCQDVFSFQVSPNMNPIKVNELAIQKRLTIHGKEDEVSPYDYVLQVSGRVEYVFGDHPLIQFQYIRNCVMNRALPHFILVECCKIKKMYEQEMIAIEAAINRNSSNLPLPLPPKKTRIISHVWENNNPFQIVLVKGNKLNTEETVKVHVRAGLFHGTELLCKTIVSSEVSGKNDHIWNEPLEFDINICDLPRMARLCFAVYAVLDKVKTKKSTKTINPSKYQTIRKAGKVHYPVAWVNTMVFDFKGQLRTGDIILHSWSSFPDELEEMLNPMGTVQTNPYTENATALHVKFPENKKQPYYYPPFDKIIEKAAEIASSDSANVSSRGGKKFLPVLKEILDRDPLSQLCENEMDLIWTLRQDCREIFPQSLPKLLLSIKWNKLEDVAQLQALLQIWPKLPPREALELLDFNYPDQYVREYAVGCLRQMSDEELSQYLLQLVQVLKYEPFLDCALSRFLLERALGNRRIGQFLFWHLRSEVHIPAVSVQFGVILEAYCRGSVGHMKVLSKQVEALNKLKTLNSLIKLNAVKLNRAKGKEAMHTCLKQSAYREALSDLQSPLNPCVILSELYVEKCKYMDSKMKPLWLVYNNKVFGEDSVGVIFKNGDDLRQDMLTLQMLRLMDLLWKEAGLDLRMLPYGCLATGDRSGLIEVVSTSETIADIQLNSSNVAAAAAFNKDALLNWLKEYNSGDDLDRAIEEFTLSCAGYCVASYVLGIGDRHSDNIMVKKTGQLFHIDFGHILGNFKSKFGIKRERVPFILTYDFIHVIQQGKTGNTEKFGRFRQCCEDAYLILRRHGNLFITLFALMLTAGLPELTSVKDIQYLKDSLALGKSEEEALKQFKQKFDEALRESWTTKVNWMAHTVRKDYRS
# T5 sequence (P27986 2-724 partner): as the sequence (P27986 2-724 partner) above
# From the text: PI3K-Glo ADP detection kinase assay on PI3Kβ
structure (smiles),measurement,setting,value
COc1ncc(-c2ccc(NC(=O)/C=C/c3cccnc3)c(-n3ccnc3)c2)cc1NS(C)(=O)=O [CK-3],IC50,[1],5.67 µM
same,IC50,[2],> 10 µM
same,IC50,[3],4.67 µM
same,IC50,[4],6.71 µM
same,IC50,[5],> 10 µM
